In ChEMBL document CHEMBL1130031, “Binding affinities for sulfonamide inhibitors with human thrombin using Monte Carlo simulations with a linear response method” (J Med Chem, 1997) one finds Ki data, which are given here for six compounds.

For this test, the target named is Prothrombin (Homo sapiens, UniProt P00734). The experiment in a line: Inhibition constant against human thrombin.

Take `CC1CNc2c(cccc2S(=O)(=O)N[C@@H](CCCNC(N)N)C(=O)N2CC[C@H](C)C[C@@H]2C(=O)O)C1` (stereo in doubt; 1c): the inhibition constant Ki turned out to be 280000 nM.
Next, `CC1CNc2c(cccc2S(=O)(=O)N[C@@H](CCCNC(N)N)C(=O)N2CC[C@H](C)C[C@@H]2C(=O)O)C1` (stereo in doubt; 1b): 1900 nM; `CC1CNc2c(cccc2S(=O)(=O)N[C@@H](CCCNC(N)N)C(=O)N2CC[C@@H](C)C[C@@H]2C(=O)O)C1` (stereo partly specified): 19 nM; `CC1CCN(C(=O)[C@H](CCCNC(N)N)NS(=O)(=O)c2cccc3c2NCC(C)C3)CC1` (stereo partly specified): 30 nM.
As for `CC1CNc2c(cccc2S(=O)(=O)N[C@@H](CCCNC(N)N)C(=O)N2CCCCC2)C1` (stereo partly specified), the figure is 130 nM.
On to `CC1CNc2c(cccc2S(=O)(=O)N[C@@H](CCCNC(N)N)C(=O)N2CC[C@H](C)C[C@@H]2C(=O)O)C1` (stereo in doubt; 1g), for which the affinity corresponds to a Ki of 240 nM.
